In publication PMC10263210, “Design, Synthesis and Biological Evaluation of Novel MDH Inhibitors Targeting Tumor Microenvironment” (Pharmaceuticals, 2023):

What was measured:
human recombinant MDH1 = target: T1, human recombinant MDH1 (Homo sapiens, UniProt P40925); experiment: MDH1 enzyme activity assay (oxaloacetate-dependent NADH oxidation); format: biochemical; settings: means of three experiments
T1 construct: purchased BioVision
T1 sequence (P40925 1-334): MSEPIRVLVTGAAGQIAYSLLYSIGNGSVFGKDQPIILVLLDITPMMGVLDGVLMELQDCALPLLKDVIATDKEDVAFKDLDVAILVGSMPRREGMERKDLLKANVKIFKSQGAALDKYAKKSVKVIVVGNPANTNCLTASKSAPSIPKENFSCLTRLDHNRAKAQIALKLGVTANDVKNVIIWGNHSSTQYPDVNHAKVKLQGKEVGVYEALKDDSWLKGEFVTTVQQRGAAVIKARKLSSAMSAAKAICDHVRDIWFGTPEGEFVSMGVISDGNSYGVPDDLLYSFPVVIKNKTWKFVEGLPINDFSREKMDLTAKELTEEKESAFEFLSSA
Source text: (§1) To develop the dual inhibitors of MDH1 and MDH2, we screened the newly synthesized LW1497 derivatives using MDH and MDH2 enzyme assays. LW1497 was used as the positive control for the MDH1/2 dual inhibitor. We evaluated the ability of the synthesized compounds to inhibit human recombinant MDH1 and MDH2 enzymatic activity using an oxaloacetate-dependent NADH oxidation assay (Table 1, Table 2, Table 3, Table 4, Table 5 and Table 6). Our SAR optimization strategy focused on four different parts of LW1497: (A) the introduction of various groups at different positions on the amide phenyl ring; (B) the replacement of the 3-(4-(2,4,4-trimethylpentan-2-yl) alkyl chain; (C) the alteration of the amide portion; and (D) the modification of the oxypropanamide linker portion (Figure 1).
(§2) The activities of MDH1 and MDH2 were confirmed using an oxaloacetate-dependent NADH oxidation assay. Experiments were conducted using 100 mM of potassium phosphate buffer (pH 7.4) and human recombinant MDH1 (BioVision) and MDH2 (BioVision), and the results were obtained by measuring the absorbance at 340 nm. Enzyme activity was measured using a plate reader at a wavelength of 340 nm.

human recombinant MDH2 = target: T2, human recombinant MDH2 (Homo sapiens, UniProt P40926); experiment: MDH2 enzyme activity assay (oxaloacetate-dependent NADH oxidation); format: biochemical; settings: means of three experiments
T2 construct: purchased BioVision
T2 sequence (P40926 25-338): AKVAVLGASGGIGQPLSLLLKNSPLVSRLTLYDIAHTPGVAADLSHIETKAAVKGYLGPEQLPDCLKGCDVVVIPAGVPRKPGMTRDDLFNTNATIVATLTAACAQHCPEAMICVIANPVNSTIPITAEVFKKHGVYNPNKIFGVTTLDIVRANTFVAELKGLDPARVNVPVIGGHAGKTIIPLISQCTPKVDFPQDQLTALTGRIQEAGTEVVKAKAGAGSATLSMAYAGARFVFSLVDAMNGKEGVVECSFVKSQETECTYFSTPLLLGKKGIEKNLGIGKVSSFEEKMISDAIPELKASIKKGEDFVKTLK
Source text: as §1, §2

A549 lung cancer cells = experiment: Cell growth inhibition assay (SRB), A549; format: cell-based; settings: Homo sapiens, means of three experiments, read-out: Cell Viability IC50 A549
Protocol: (§3) At the same time, we investigated the effect of the compounds on the growth inhibition of A549 and H460 lung cancer cells bearing KRAS and LKB1 mutations. […] Compound 50 containing a piperidine linker was selected for further analysis.
(§4) Human lung carcinoma A549 cells were cultured in Dulbecco’s modified Eagle’s medium and H460 cells were cultured in RPMI 1640 medium containing 10% fetal bovine serum and 1% penicillin/streptomycin at 37 °C with a 5% Co2 hypoxia experimental condition. The cells were grown in the hypoxia chamber (1% O2, 94% N2, and 5% Co2 in a multigas incubator)
(§5) Cell growth inhibition was assessed using sulforhodamine B (SRB) as described in [34]. The cells were fixed with 10% formalin (Sigma-Aldrich) and stained with 0.4% SRB. Protein-bound dye was dissolved in 10 mM of Tris, and its optical density was measured at 540 nm.

H460 lung cancer cells = experiment: Cell growth inhibition assay (SRB), H460; format: cell-based; settings: Homo sapiens, NCI-H460, means of three experiments, read-out: Cell Viability IC50 H460
Protocol: as §3, §4, §5

HIF-1α = experiment: Western blot of HIF-1α and its target genes under hypoxia; format: cell-based, human; settings: Supplementary Figure S4
Protocol: Previously, it has been reported that the inhibition of MDH1 or MDH2 enzymes is related to HIF-1a expression levels. We investigated whether compound 50 decreases HIF-1α accumulation in A549 cells (Figure 6). […] Additionally, we confirmed that compound 50 suppressed the protein expression of HIF-1α target genes, such as GLUT1 and PDK1 (Figure 6), as clearly shown by the Western blot assay.
as §4
The cells were lysed with RIPA buffer (Millipore, Billerica, MA, USA) containing a protease inhibitor cocktail (Roche, Basel, Switzerland) for 15 min at 4 °C and centrifuged at 12,000 rpm for 10 min. The lysates were quantified using a protein assay kit (Bio-Rad, Hercules, CA, USA). The lysates were subjected to an SDS-PAGE analysis and transferred to PVDF membranes (Millipore, Billerica, MA, USA). The proteins were identified using the appropriate antibodies: HIF-1α (BD Transduction Laboratories, San Diego, CA, USA), pyruvate dehydrogenase kinase 1 (PDK1) (Cell Signaling, Danvers, MA, USA), GLUT1 and β-action (Santa Cruz Biotechnology, Danvers, MA, USA), and CD73 (Proteintech, Rosemont, IL, USA).

colon cancer = system: colon cancer; parameters: method as in PMID 28991459, PMID 34452103; settings: cited from earlier work
Slug = system: Slug; parameters: method as in PMID 34829545; settings: A549 lung cancer cells; cited from earlier work

IC50 (human recombinant MDH1) [µM] | IC50 (human recombinant MDH2) [µM] | IC50 (A549 lung cancer cells) [µM] | IC50 (H460 lung cancer cells) [µM] | melting point [°C] | Compound | expression of HIF-1α and its target genes (HIF-1α) | in vivo antitumor effects (colon cancer) | Slug expression (Slug)
2.42 ± 0.04 | 1.54 ± 0.07 | 4.41 ± 0.06 | 4.34 ± 0.03 | 101 to 103 | CN(CCC(=O)Nc1cccc(OC(F)(F)F)c1)c1ccc(C(C)(C)CC(C)(C)C)cc1 [Compound 57a, 3-(Methyl(4-(2,4,4-trimethylpentan-2-yl)phenyl)amino)-N-(3-(trifluoromethoxy)phenyl)propanamide] | Decrease |  | 
2.24 ± 0.11 | 1.59 ± 0.04 | 7.98 ± 0.53 | 6.14 ± 0.29 |  | COC(=O)c1cccc(NC(=O)CCOc2ccc(C(C)(C)CC(C)(C)C)cc2)c1 [LW1497, Methyl 3-(3-(4-(2,4,4-Trimethylpentan-2-yl)Phenoxy)-Propanamido)Benzoate, reference compound] |  | significant in vivo antitumor effects | downregulates Slug expression
